In patent US20170138931A9, “METHOD FOR DIAGNOSIS OF INFLAMMATORY DISEASES USING CALGRANULIN C” (WESTFAELISCHE WILHELMS-UNIVERSITAET MUENSTER, priority 2002, published 2017):
Marks after values point to notes of the source that are not given here.

What was measured:
[1] = system: CALGRANULIN C expressed in synovial tissue; test: Immunohistochemical analysis of CALGRANULIN C in synovial tissue of psoriatic arthritis patients before and after MTX treatment; format: in vivo, human; conditions: for number of CALGRANULIN C-positive cells per field in synovial membrane, mean score of 10 fields: after MTX treatment, 400-fold magnification
Description: To confirm local expression of CALGRANULIN C at sites of inflammation we performed immunohistochemical studies. Synovial biopsies were performed in 4 patients with psoriatic arthritis before and after MTX-therapy. In addition, biopsies were obtained from 5 patients with psoriatic arthritis not receiving MTX, 2 patients with rheumatoid arthritis, and 2 patients with seronegative arthritis. Two biopsies of patients without synovial inflammation served as negative controls. Cryo-fixed and paraffin-embedded sections were prepared as commonly known in the art. Rabbit anti-human CALGRANULIN C antibody was used to detect CALGRANULIN C expression. Mouse-anti-human CD15, a granulocyte-associated antigen, was used to detect granulocytes in infiltrates. Mouse-anti human CD163 antibody (clone RM3/1, detecting a macrophage-specific scavenger receptor) was employed to characterize macrophages in infiltrates. Species matching control antibodies of irrelevant specificity were used as negative controls. Finally the sections were counterstained with Mayer's haematoxylin. Secondary antibodies and substrates for colour reactions were used as described before. For double-labelling experiments, anti-CALGRANULIN C antibody was followed by anti-CD15 antibody. We used affinity-purified goat-anti-mouse or goat-anti-rabbit secondary antibodies conjugated with either Texas Red or FITC (Dianova, Hamburg, Germany). Fluorescence was analysed using a Zeiss Axioskop connected to an Axiocam camera supply with Axiovision 3.0 for windows (Zeiss, Göttingen, Germany). No cross-reactivity or spillover was detected in control experiments after omitting specific antibodies or replacing them by isotype-matched control antibodies of irrelevant specificity.
We analysed the effects of MTX treatment on CALGRANULIN C expression in serum of 14 patients with psoriatic arthritis and in synovial membranes of 4 patients. Before treatment, extensive expression of CALGRANULIN C was found in synovial tissue of psoriatic arthritis patients before MTX treatment (cf. FIG. 7G), as described above predominantly in the sub-lining layer and perivascular.

[2] = system: CALGRANULIN C serum levels; test: Serum CALGRANULIN C by sandwich ELISA in psoriatic arthritis patients treated with MTX; format: in vivo, human; conditions: 14 psoriatic arthritis patients, after MTX; 240 ng/ml prior
Description: (§1) Concentrations of CALGRANULIN C in the serum of patients were determined by a double sandwich enzyme linked immunosorbent assay (ELISA) system. Flat-bottom 96-well microtiter plates (Maxisorp; Nunc, Roskilde, Denmark) were coated at 50 μl/well with 10 ng/well of anti-CALGRANULIN C in 0.1 M sodium carbonate buffer, pH 9.6; incubated for 16 h at 4° C.; washed three times with phosphate buffer saline and 0.1% Tween 20, pH 7.4 (wash buffer); and blocked with wash buffer containing 0.25% bovine serum albumin (block buffer) for 1 h at 37° C. Plates were washed once with wash buffer and 50 μl of samples with varying dilutions in block buffer were added for 1 h at room temperature. […] Absorbency at 405 nm was measured with ELISA-reader (MRX microplate reader, Dynatech Laboratories, St Peter Port, Guernsey, UK).
We investigated 42 patients with chronic inflammatory arthritis. CALGRANULIN C concentrations were analysed in serum and synovial fluid using a sandwich-ELISA as described above. Serum levels were determined from 14 patients (9 male, 5 female; mean age 40 years; range 21-64) suffering from psoriasis arthritis (mean disease duration 14.6±8.6 months), who where treated with the anti-inflammatory drug MTX (mean dose 12.9±4.8 mg). […]
We analysed the effects of MTX treatment on CALGRANULIN C expression in serum of 14 patients with psoriatic arthritis and in synovial membranes of 4 patients. […]

JRA patients = conditions: Ravelli et al., 1995; cited from earlier work
[3] = system: patients with psoriatic arthritis; test: Disease activity in patients with psoriatic arthritis after initiation of MTX treatment; format: in vivo, human
Description: We investigated 42 patients with chronic inflammatory arthritis. CALGRANULIN C concentrations were analysed in serum and synovial fluid using a sandwich-ELISA as described above. Serum levels were determined from 14 patients (9 male, 5 female; mean age 40 years; range 21-64) suffering from psoriasis arthritis (mean disease duration 14.6±8.6 months), who where treated with the anti-inflammatory drug MTX (mean dose 12.9±4.8 mg). No other medication apart from non-steroidal anti-inflammatory drugs (NSAIDs) were taken. Serum was obtained before and after treatment (mean follow up interval 6.4±1.3 months). In addition, paired serum and synovial fluid samples were available from 28 patients who underwent arthroscopy (8 patients with psoriatic arthritis, 9 patients with rheumatoid arthritis, 11 patients with seronegative arthritis). All patients were examined by the same physician. Clinical status of patients was documented by recording early morning stiffness, pain score, Ritchie articular index (RI) (Ritchie et al., 1968, QJ Med 37: 393-406) and number of swollen joint count (SJC). […] Patients with seronegative arthritis were in between these groups. In addition to the clinical status, CRP, ESR, anti nuclear antibodies (ANA), and rheumatoid factor (RF) were documented.
Response to therapy was paralleled by a marked decrease of CALGRANULIN C serum levels after MTX treatment (mean 240 ng/ml prior versus 100 ng/ml after MTX; cf. FIG. 8). CALGRANULIN C levels correlated well with improving EMS, pain score, RI and SJC.

[4] = system: CALGRANULIN C serum levels; test: CALGRANULIN C serum levels in Crohn's disease patients treated with infliximab; format: in vivo, human; conditions: 3 Crohn's disease patients; before, 2 weeks and 4 weeks after infliximab
Description: FIG. 11: CALGRANULIN C serum levels in patients with Crohn's disease due to infliximab treatment. Individual courses of CALGRANULIN C and CDAI in 3 patients before, 2 weeks, and 4 weeks after treatment with infliximab (a-c).
as §1, with “temperature. The ELISA was calibrated with purified CALGRANULIN C in concentrations ranging from 0.016 to 125 ng/ml.” for “temperature.”
Crohn's disease patients (n=40), ulcerative colitis patients (n=34) and healthy controls (n=30) were investigated: CALGRANULIN C protein serum levels were measured as described above using ELISA. In parallel, CRP and ESR were determined. […]

[5] = system: Human mixed donor neutrophils; test: CALGRANULIN C secretion by neutrophils stimulated with TNF alpha in vitro; format: cell-based
Description: Human mixed donor neutrophils were isolated from buffy coats (German red cross, Munster, Germany) as described before (Vogl et al., 1999, J Biol Chem 274: 25291-25296). Briefly, centrifugation through Ficoll-Hypague (Biocoll, Biochrom, Berlin, Germany) was performed to separate neutrophils from mononuclear cells and platelets. Erythrocytes were separated by dextran sedimentation. The remaining cells were washed twice in PBS. Purity of cells was above 95%, as determined by morphological analysis of Trypan-blue stained cells. Neutrophils were resuspended at a final concentration of 1×10^7 cells/ml in serum free RPMI medium (Biochrom, Berlin, Germany) supplemented with 1% glutamine, 1% non-essential amino acids, and 1% penicillin/streptomycin. […] Stimulated and non-stimulated cells were incubated for 15 or 30 minutes at 37° C., respectively. Finally, neutrophils were pelleted at 500×g for 5 minutes at 4° C. and the supernatant was saved for analyses of CALGRANULIN C with sandwich-ELISA. Cell lysis was assessed by analysing activity of lactate dehydrogenase (LDH) using its capacity to convert NADH to NAD^+ and measuring the decrease of absorbency of NADH at 340 nm. Protease inhibitors were added to prevent proteolytic degradation.

[6] = Stability of CALGRANULIN C protein; format: physicochemical; conditions: at room temperature or after multiple thawing and freezing cycles
[7] = system: interaction of CALGRANULIN C with RAGE; conditions: blocking the CALGRANULIN C-RAGE interaction; Hofmann et al. 1999, Schmidt et al. 2001; cited from earlier work

Molecule: CN(Cc1cnc2nc(N)nc(N)c2n1)c1ccc(C(=O)N[C@@H](CCC(=O)O)C(=O)O)cc1 [MTX, methotrexat]
- number of CALGRANULIN C-positive cells per field in synovial membrane, mean score of 10 fields ([1]; Patient 1, psoriatic arthritis, before MTX 23): 3
- number of CALGRANULIN C-positive cells per field in synovial membrane, mean score of 10 fields ([1]; Patient 2, psoriatic arthritis, before MTX 12): <1
- number of CALGRANULIN C-positive cells per field in synovial membrane, mean score of 10 fields ([1]; Patient 3, psoriatic arthritis, before MTX 17): <1
- number of CALGRANULIN C-positive cells per field in synovial membrane, mean score of 10 fields ([1]; Patient 4, psoriatic arthritis, before MTX 21): <1
- CALGRANULIN C expression in synovial biopsies ([1]; psoriatic arthritis patients after effective MTX treatment, extensive expression before): almost undetectable
- mean CALGRANULIN C serum level [2]: 100 ng/mL
- JRA patients who relapse after withdrawal of treatment (JRA patients): about 50%
- CRP ([3]; before MTX 4.2, p < 0.05): 2.5* mg/dl
- Pain ([3]; before MTX 5.3, p < 0.05): 3.2* points
- RI (Ritchie articular index) ([3]; before MTX 6.3, p < 0.01): 1.9** points
- SJC (swollen joint count) ([3]; before MTX 9.6, p < 0.01): 3.3** No.
- ESR ([3]; before MTX 28, p < 0.05): 12* mm/h
- EMS (early morning stiffness) ([3]; before MTX 76, p < 0.01): 25** min

Molecule: infliximab: TNF blocking agents such as anti-TNF antibodies, e.g. infliximab
- CALGRANULIN C serum levels after treatment [4]: decreased rapidly

Molecule: TNF alpha
- CALGRANULIN C secretion into supernatant ([5]; TNF alpha 2 or 5 ng/ml, 15 or 30 minutes at 37° C., unstimulated cells between 5 and 10 ng/ml): time- and dose-dependent increase
- viability and cell lysis tested by LDH activity ([5]; stimulated vs non-stimulated neutrophils): no differences

B1: CALGRANULIN C: small protein of 92 amino acids which belongs to the family of calcium-binding S100 proteins; SEQ ID NO:2 (protein)
chain: MTKLEEHLEGIVNIFHQYSVRKGHFDTLSKGELKQLLTKELANTIKNIKDKAVIDEIFQGLDANQDEQVDFQEFISLVAIALKAAHYHTHKE
modifications: homo sapiens
- stability of the protein [6]: extremely stable

B2: sRAGE: soluble RAGE, receptor for advanced glycation end products, used as blocking agent in mouse models (protein, UniProt Q62151 23-340, looked up)
extracellular domain: GQNITARIGEPLVLSCKGAPKKPPQQLEWKLNTGRTEAWKVLSPQGGPWDSVARILPNGSLLLPATGIVDEGTFRCRATNRRGKEVKSNYRVRVYQIPGKPEIVDPASELTASVPNKVGTCVSEGSYPAGTLSWHLDGKLLIPDGKETLVKEETRRHPETGLFTLRSELTVIPTQGGTHPTFSCSFSLGLPRRRPLNTAPIQLRVREPGPPEGIQLLVEPEGGIVAPGGTVTLTCAISAQPPPQVHWIKDGAPLPLAPSPVLLLPEVGHEDEGTYSCVATHPSHGPQESPPVSIRVTETGDEGPAEGSVGESGLGTLA
modifications: extracellular domain
- effect in mouse models of inflammation including arthritis [7]: clear anti-inflammatory effects
